Experiments:
Type in all cases: cell-based, murine
[1] = tested on: RAW 264.7 cells; experiment: Poly I:C-induced TNF release by RAW 264.7 cells; settings: peptide 10^−15 to 10^−9 M; reduced effects above that
Description: (§1) Murine macrophage-like RAW 264.7 cells were obtained from American Type Culture Collection, and were grown in Dulbecco’s Modified Eagle’s Medium (DMEM, Life Technologies) containing 10% (vol/vol) heat-inactivated fetal bovine serum (FBS, Hyclone Lab. Inc.), penicillin 100 U/ml, and streptomycin 100 μg/ml (BioWhittaker Inc.). Cells were suspended in medium and incubated in 24-well or 48-well tissue-culture plates overnight in a humidified incubator (37 °C, 5% CO2). Growth medium was removed and replaced by Opti-MEM I serum-free medium (Life Technologies) overnight. In the experiments, cell monolayers were stimulated with HMGB1 or LPS, in the absence or presence of MECO-1 or alpha-MSH; cell-free supernatants were assayed for TNF by ELISA or HMGB1 by western blotting.
(§2) Concentrations of TNF and IL-6 were each determined using a commercially available enzyme-linked immunosorbent assay (ELISA) kit (R&D System Inc.) as previously described.[34] The levels of TNF or IL-6 were calculated with reference to standard curves.
(§3) Fig. 2 Cytokine-induced TNF release inhibited by MECO-1. a Lipopolysaccharide (LPS), derived from the cell wall of Gram-negative bacteria, is a TLR4 and TLR2 agonist. RAW 264.7 cells were treated with MECO-1 and LPS simultaneously and incubated overnight. Supernatants were tested for TNF with ELISA. b Poly I:C, synthetic double stranded RNA, is recognized by TLR3. […]

[2] = tested on: RAW 264.7 cells; experiment: Peptidoglycan (PGN)-induced TNF release by RAW 264.7 cells; settings: picomolar range of peptide; waning inhibition at nanomolar concentrations
Description: as §1, §2, §3

[3] = tested on: RAW 264.7 cells; experiment: HMGB1-induced TNF release by RAW 264.7 macrophage-like cells
Description: Fig. 1 MECO-1 attenuates HMGB1-induced TNF release by macrophages in culture. Murine macrophage-like RAW 264.7 cells were incubated for up to 24 h with purified recombinant HMGB1 (0.1 mg/ml) in the absence or presence of MECO-1 (Panel a), or alpha-MSH (Panel b), at 10^−10 and 10^−12 M. The levels of TNF in the culture medium were determined by ELISA and expressed as mean ± SEM of two independent experiments (in duplicate). *p < 0.05, **p < 0.01 vs. control (“HMGB1 alone”). […] In panels c and d, cells were incubated with HMGB1 for 6 h with or without MECO-1 or alpha-MSH (10^−16–10^−6 M). Data represent mean ± SEM of three independent experiments performed in duplicate. With 10^−14 M peptide, results were significant at *p < 0.05, and at 10^−12 M or more were typically **p < 0.01. In our experiments, at concentrations of MECO-1, alpha-MSH, and ACTH of around 1 nM and higher, dose response curves often reverse direction, i.e., turn upward. The reversal is more clearly seen in Fig. 2. The mechanism of the reversal is not known. (Desensitization, receptor inactivation, receptor internalization, and dissociation of dimeric receptors are all plausible candidates.) As a result, the shape of the lower part of the curve and the actual inflection point may vary from experiment to experiment. This feature may be missed when results of several experiments are combined
as §1, §2
Fig. 3 Antibody to MC1R blocks suppressant effect of MECO-1 and alpha-MSH. Murine macrophage-like RAW 264.7 cells were pretreated with specific antibodies (“anti-MC1R Ab”) against melanocortin-1 receptor (MC1R) for 10 min prior to addition of HMGB1 in the absence or presence of MECO-1 or alpha-MSH at 10^−12 M. At 6 h, the TNF content of the cell-free medium was determined by ELISA, and expressed as mean ± SEM of two independent experiments performed in duplicate. ACTH at the same concentration gave results that were indistinguishable from those of alpha-MSH and MECO-1 (data not shown)

alpha-melanocyte-stimulating hormone [alpha-MSH]
inhibition of Poly I:C-induced TNF release [1]: up to 90% | inhibition of PGN-induced TNF release [2]: Up to 75% | peptide concentration at which significant effects on HMGB1-induced TNF release were noted ([3]; 6 h incubation, dose range 10^−16–10^−6 M, three independent experiments in duplicate, p < 0.05): 10^−14 M | inhibition of HMGB-1-induced TNF release ([3]; Fig. 2d dose response, RAW 264.7 cells): up to 80% | TNF accumulation with HMGB1 on co-incubation with peptide ([3]; peptide 10^−12–10^−8 M): substantially reduced | HMGB-1-stimulated TNF-alpha release ([3]; peptide at 1 pM and 100 pM, 4 to 16 h after HMGB-1, HMGB1 0.1 mg/ml, ELISA, two independent experiments in duplicate): blunted substantially

Reference: PMC5684143, “New melanocortin-like peptide of E. coli can suppress inflammation via the mammalian melanocortin-1 receptor (MC1R): possible endocrine-like function for microbes of the gut” (NPJ Biofilms and Microbiomes, 2017)
